Tests used:
Experiment in all cases: normalised response (% of control), CellTox Green; higher = less cell death (100 = DMSO, 0 = benzethonium chloride kill control)
Settings in all cases: incubation time: 72 h
[1] = system: BT-474
Summary of the method: (§1)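 Breast cancer cell lines, seeded at 20 µl suspension per well, were incubated for 72 h in 384-well plates containing compound at 5 concentrations. These concentrations rose in 10-fold steps over a 10,000-fold range set for each compound. CellTox Green fluorescence (485/520 nm) was read, then CellTiter-Glo luminescence after 10 min at room temperature, and each plate was normalised to 0.1 % DMSO (100) and a positive kill control (0). Values are normalised signals, each at one concentration.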

[2] = system: CAL-120
Summary of the method: as §1

[3] = system: CAL-51
Summary of the method: as §1

[4] = system: CAL-85-1
Summary of the method: as §1

[5] = system: DU-4475
Summary of the method: as §1

[6] = system: HCC1143
Summary of the method: as §1

[7] = system: HCC1599
Summary of the method: as §1

[8] = system: HCC1937
Summary of the method: as §1

[9] = system: HDQ-P1
Summary of the method: as §1

[10] = system: MDA-MB-231
Summary of the method: as §1

[11] = system: MDA-MB-436
Summary of the method: as §1

[12] = system: MDA-MB-453
Summary of the method: as §1

[13] = system: MDA-MB-468
Summary of the method: as §1

[14] = system: MFM-223
Summary of the method: as §1

[15] = system: CAL-148
Summary of the method: as §1

| Structure (SMILES) | normalised response [1] | normalised response [2] | normalised response [3] | normalised response [4] | normalised response [5] | normalised response [6] | normalised response [7] | normalised response [8] | normalised response [9] | normalised response [10] | normalised response [11] | normalised response [12] | normalised response [13] | normalised response [14] | normalised response [15] |
| --- | --- | --- | --- | --- | --- | --- | --- | --- | --- | --- | --- | --- | --- | --- | --- |
| CN(N=O)C(=O)N[C@@H](C=O)[C@@H](O)[C@H](O)[C@H](O)CO [Streptozocin] (1000 nM) | 97.2% | 106% | 95.2% | 110% | 107% | 113% | 103% | 99.3% | 92.3% | 96.8% | 106% | 108% | 90.8% | 98.3% |  |
| Oc1nc(-c2ccc(C(F)(F)F)cc2)nc2c1CSCC2 [XAV-939] (10000 nM) | 103% | 93.8% | 79.7% | 105% | 103% | 103% | 103% | 93.2% | 71.7% | 101% | 95.5% | 94.1% | 115% | 101% | 101% |
| C=C(c1ccc(C(=O)O)cc1)c1cc2c(cc1C)C(C)(C)CCC2(C)C [Bexarotene] (1000 nM) | 99.1% | 99.6% | 110% | 95.7% | 99.3% | 83.9% | 107% | 94.8% | 95.3% | 114% | 98.4% | 84.4% | 111% | 103% | 75.7% |
| Clc1ccc(Nc2nnc(Cc3ccncc3)c3ccccc23)cc1 [Vatalanib] (10000 nM) | 102% | 102% | 109% | 76.8% | 107% | 125% | 114% | 123% | 114% | 129% | 107% | 105% | 86.5% | 97.1% | 53.2% |
| C[C@@H](Oc1cc(-c2cnn(C3CCNCC3)c2)cnc1N)c1c(Cl)ccc(F)c1Cl [Crizotinib] (1000 nM) | 98.9% | 102% | 83.6% | 76.1% | 107% | 131% | 111% | 87% | 72.7% | 115% | 57.6% | 98.3% | 123% | 78.6% | 97.2% |
| Cc1ccc(C(=O)Nc2ccc(CN3CCN(C)CC3)c(C(F)(F)F)c2)cc1C#Cc1cnc2cccnn12 [Ponatinib] (100 nM) | 97.9% | 99.1% | 99% | 105% | 99.3% | 107% | 97.4% | 92.2% | 95.6% | 97.6% | 102% | 105% | 96.7% | 98.7% | 104% |
| CCC1(c2ccc(N)cc2)CCC(=O)NC1=O (configuration not stated) [Aminoglutethimide] (10000 nM) | 90% | 99.7% | 115% | 89.5% | 95.9% | 59.1% | 101% | 110% | 107% | 112% | 91.5% | 96.9% | 69% | 102% | 97% |
| CN[C@@H]1C[C@H]2O[C@@](C)([C@@H]1OC)n1c3ccccc3c3c4c(c5c6ccccc6n2c5c31)C(=O)N[C@H]4O [UCN-01] (1000 nM) | 70.9% | 59.7% | 40.2% | 29.5% | 78.3% | 53.2% | 79.3% | 106% | 63.7% | 32.6% | 94.5% | 91.4% | 59.7% | 67.8% | 89.2% |
| CN[C@@H]1C[C@H]2O[C@@](C)([C@@H]1OC)n1c3ccccc3c3c4c(c5c6ccccc6n2c5c31)C(=O)N[C@H]4O [UCN-01] (10000 nM) | 24.5% | 18.1% | 33.5% | -33.4% | 76.1% | 72% | 80.9% | 95.6% | 43.6% | 1.94% | 83.2% | 78.3% | 180% | 78.1% | 40.4% |
| CCC1=C[C@@H]2CN(C1)Cc1c([nH]c3ccccc13)[C@@](C(=O)OC)(c1cc3c(cc1OC)N(C)[C@H]1[C@@](O)(C(=O)OC)[C@H](OC(C)=O)[C@]4(CC)C=CCN5CC[C@]31[C@@H]54)C2 [Vinorelbine] (1000 nM) | 61.2% | 91.7% | 18.8% | 68.7% | 96.7% | 104% | 79.5% | 92.5% | -18.4% | 20.9% | 76.9% | 101% | 98.1% | 55.2% | 54.8% |
| Oc1nc(-c2ccc(C(F)(F)F)cc2)nc2c1CSCC2 [XAV-939] (1000 nM) | 101% | 102% | 102% | 103% | 101% | 96.1% | 100% | 114% | 77.1% | 102% | 102% | 102% | 118% | 99.9% | 101% |
| Cn1c(Nc2ccc(C(F)(F)F)cc2)nc2cc(Oc3ccnc(-c4ncc(C(F)(F)F)[nH]4)c3)ccc21 [RAF265] (100 nM) | 100% | 100% | 100% | 86.3% | 105% | 96.9% | 98.6% | 109% | 113% | 114% | 94.9% | 105% | 115% | 102% | 107% |
| C#Cc1cccc(Nc2ncnc3cc(OCCOC)c(OCCOC)cc23)c1 [Erlotinib] (10000 nM) | 83.9% | 100% | 86% | 46% | 101% | 16.9% | 104% | 81.4% | 79.7% |  | 102% | 95.1% | 97.7% | 69.3% | 85.1% |
| Cc1ccc(-n2nc(C(C)(C)C)cc2NC(=O)Nc2ccc(OCCN3CCOCC3)c3ccccc23)cc1 [Doramapimod] (1000 nM) | 97.6% | 96.1% | 101% | 113% | 95.2% | 104% | 83.8% | 109% | 89.6% | 102% | 87.7% | 105% | 122% | 100% | 104% |
| N[C@@H](CSC(c1ccccc1)(c1ccccc1)c1ccccc1)C(=O)O [S-trityl-L-cysteine] (4000 nM) | 101% | 97.9% | 105% | 100% | 101% | 87% | 95.5% | 85.1% | 62.2% |  | 105% | 101% | 136% |  | 98.3% |
| COc1cc2nccc(Oc3ccc(NC(=O)C4(C(=O)Nc5ccc(F)cc5)CC4)cc3)c2cc1OC [Cabozantinib] (100 nM) | 100% | 98.2% | 100% | 106% | 97.5% |  | 92.3% | 120% | 91.5% | 103% |  | 99.4% | 136% | 96.3% | 102% |
| Cn1c(CCCC(=O)O)nc2cc(N(CCCl)CCCl)ccc21 [Bendamustine] (1000 nM) | 103% | 99.9% | 116% | 101% | 103% | 84.8% | 101% | 119% | 95.9% | 117% | 81.8% | 104% | 121% | 105% | 101% |
| Cn1c(Nc2ccc(C(F)(F)F)cc2)nc2cc(Oc3ccnc(-c4ncc(C(F)(F)F)[nH]4)c3)ccc21 [RAF265] (1000 nM) | 98.1% | 100% | 96.3% | 55.5% | 99.4% | 122% | 110% | 82% | 109% | 113% | 107% | 102% | 145% | 21.6% | 80.4% |
| C=C(c1ccc(C(=O)O)cc1)c1cc2c(cc1C)C(C)(C)CCC2(C)C [Bexarotene] (10000 nM) | 97.8% | 100% | 96.8% | 79.7% | 101% | 114% | 108% | 105% | 110% | 108% | 78.6% | 98.4% | 121% | 74.1% | 97.9% |
| O=C1CCC(N2C(=O)c3ccccc3C2=O)C(=O)N1 (configuration not stated) [Thalidomide] (1000 nM) | 97.5% | 101% | 111% | 108% | 98.5% | 99% | 98.2% | 99% | 111% | 63.5% | 109% | 103% | 130% | 100% | 97.4% |
| Clc1ccc(Nc2nnc(Cc3ccncc3)c3ccccc23)cc1 [Vatalanib] (1000 nM) | 97.2% | 92.8% | 109% | 104% | 101% | 64.7% | 104% | 134% | 105% | 118% | 102% | 104% | 138% | 103% | 98.1% |
| CCC1(c2ccc(N)cc2)CCC(=O)NC1=O (configuration not stated) [Aminoglutethimide] (1000 nM) | 102% | 99.8% | 83.5% | 105% | 99.2% | 106% | 96.2% | 97.3% | 104% | 76.7% | 98.2% | 101% | 177% | 97.6% | 104% |
| O=P1(NCCCl)OCCCN1CCCl (configuration not stated) [Ifosfamide] (1000 nM) | 98.2% | 99.5% | 95.4% | 100% | 95.8% | 107% | 98.7% | 70.1% | 67.6% | 96.2% | 58.7% | 107% | 139% | 94.9% | 100% |
| CO[C@H]1/C=C\C=C(/C)C(=O)NC2=CC(=O)C(NCCN(C)C)=C(C[C@@H](C)C[C@H](OC)[C@H](O)[C@@H](C)/C=C(\C)[C@@H]1OC(N)=O)C2=O [Alvespimycin] (100 nM) | 76.6% | 95% | 60.4% | 71.6% | 68.1% | 69.1% | 107% | 118% | 75.2% | 67.9% | 89.6% | 91.4% | 104% | 89.6% | 48.7% |
| Cc1ccc(-n2nc(C(C)(C)C)cc2NC(=O)Nc2ccc(OCCN3CCOCC3)c3ccccc23)cc1 [Doramapimod] (10000 nM) | 97.5% | 93.6% | 86.3% | 126% | 100% | 75.8% | 99% | 79.6% | 96.2% |  | 55.2% | 104% | 132% | 96.5% | 98.2% |
| CC1(C)NC(=O)N(c2ccc([N+](=O)[O-])c(C(F)(F)F)c2)C1=O [Nilutamide] (10000 nM) | 98.8% | 101% | 102% | 83.5% | 104% |  | 102% | 92.1% | 98.1% | 105% | 102% | 97.3% | 115% | 96.2% | 101% |
